According to ChEMBL document CHEMBL3885861, “Open TG-GATES”:

Species on record: Rattus norvegicus
Experiment: Open TG-GATES - Regimen: Daily Repeat
Type: toxicity, organism-based, Sprague-Dawley
Design: regimen Daily Repeat, gender Male, age 6 weeks
Conditions: in vivo, po, route gavage; for gamma-GTP / ALP / ALT / AST / CRE / Ca / Cl / DBIL / GLC / IP / K / LDH / Na / PL / RALB / TBIL / TC / TG / TP / BUN: tissue Plasma; for APTT / Bas / Eos / Fbg / Hb / Lym / MCH / MCHC / MCV / Mono / Plat / RBC / Ret / WBC / Ht: tissue Blood; for KIDNEY_L / KIDNEY_R / KIDNEY_TOTAL: tissue Kidney
[1] = 75 mg/kg, 72 h, dose level Middle, time 3 day
[2] = 75 mg/kg, […], dose level Middle, time 7 day
[3] = 75 mg/kg, […], dose level Middle, time 14 day
[4] = 75 mg/kg, […], dose level Middle, time 28 day
[5] = 250 mg/kg, 72 h, dose level High, time 3 day
[6] = 250 mg/kg, […], dose level High, time 7 day
[7] = 250 mg/kg, […], dose level High, time 14 day
[8] = 250 mg/kg, […], dose level High, time 28 day

SMILES: O=C1CN(/N=C/c2ccc(-c3ccc([N+](=O)[O-])cc3)o2)C(O)=N1 [DANTROLENE]
- gamma-GTP (25 mg/kg, […], dose level Low, time 28 day): 1.6 IU/L
- TERMINAL_BW [1]: 213.7 g
- APTT [1]: 19.1 s
- Bas [1]: 0%
- Eos [1]: 1%
- Fbg [1]: 223.4 mg/dL
- Hb [1]: 14.1 g/dL
- Lym [1]: 81.8%
- MCH [1]: 21.6 pg
- MCHC [1]: 33.8%
- MCV [1]: 63.8 fL
- Mono [1]: 7%
- Plat [1]: 126.6 x10_4/uL
- RBC [1]: 656.2 x10_4/ul
- Ret [1]: 2.9%
- WBC [1]: 97.1 x10_2/uL
- KIDNEY_L [1]: 1 g
- KIDNEY_R [1]: 1 g
- KIDNEY_TOTAL [1]: 2 g
- ALP [1]: 615 IU/L
- ALT [1]: 30.2 IU/L
- AST [1]: 63.2 IU/L
- CRE [1]: 0.6 mg/dL
- Ca [1]: 10.8 mg/dL
- Cl [1]: 105.2 meq/L
- DBIL [1]: 0.01 mg/dL
- GLC [1]: 188 mg/dL
- IP [1]: 6 mg/dL
- K [1]: 4.2 meq/L
- LDH [1]: 107.2 IU/L
- Na [1]: 140.6 meq/L
- PL [1]: 142 mg/dL
- RALB [1]: 3.9 g/dL
- TBIL [1]: 0.3 mg/dL
- TC [1]: 75.4 mg/dL
- TG [1]: 52.4 mg/dL
- TP [1]: 5.8 g/dL
- gamma-GTP [1]: 1 IU/L
- TERMINAL_BW [2]: 242.5 g
- TERMINAL_BW [3]: 289.9 g
- TERMINAL_BW [4]: 346.6 g
- APTT [2]: 17.1 s
- Bas [2]: 0%
- Eos [2]: 1%
- Fbg [2]: 207.4 mg/dL
- Hb [2]: 14.3 g/dL
- Lym [2]: 77.8%
- MCH [2]: 21.1 pg
- MCHC [2]: 33.5%
- MCV [2]: 63 fL
- Mono [2]: 8.4%
- RBC [2]: 679 x10_4/ul
- Ret [2]: 5.6%
- WBC [2]: 121.9 x10_2/uL
- APTT [3]: 16.7 s
- Bas [3]: 0%
- Eos [3]: 0.6%
- Fbg [3]: 222.4 mg/dL
- Hb [3]: 15.3 g/dL
- Lym [3]: 83.6%
- MCH [3]: 21 pg
- MCHC [3]: 34%
- MCV [3]: 61.8 fL
- Mono [3]: 5.8%
- Plat [3]: 114.6 x10_4/uL
- RBC [3]: 727.2 x10_4/ul
- Ret [3]: 4.7%
- WBC [3]: 127.2 x10_2/uL
- APTT [4]: 16.8 s
- Bas [4]: 0%
- Eos [4]: 1.2%
- Fbg [4]: 231.8 mg/dL
- Hb [4]: 15.7 g/dL
- Ht [4]: 46.3%
- Lym [4]: 79.4%
- MCH [4]: 19.5 pg
- MCHC [4]: 33.9%
- MCV [4]: 57.5 fL
- Mono [4]: 5.4%
- Plat [4]: 118.7 x10_4/uL
- RBC [4]: 806.6 x10_4/ul
- Ret [4]: 4.4%
- KIDNEY_L [2]: 1.1 g
- KIDNEY_R [2]: 1.1 g
- KIDNEY_TOTAL [2]: 2.1 g
- KIDNEY_L [3]: 1.2 g
- KIDNEY_R [3]: 1.2 g
- KIDNEY_TOTAL [3]: 2.4 g
- KIDNEY_L [4]: 1.4 g
- KIDNEY_R [4]: 1.4 g
- KIDNEY_TOTAL [4]: 2.8 g
- ALP [2]: 857.6 IU/L
- ALT [2]: 34 IU/L
- AST [2]: 61.2 IU/L
- BUN [2]: 18.2 mg/dL
- CRE [2]: 0.5 mg/dL
- Ca [2]: 10.8 mg/dL
- Cl [2]: 108.6 meq/L
- DBIL [2]: 0.014 mg/dL
- GLC [2]: 185.6 mg/dL
- IP [2]: 6.9 mg/dL
- K [2]: 4.8 meq/L
- LDH [2]: 107.4 IU/L
- Na [2]: 139.6 meq/L
- PL [2]: 139.4 mg/dL
- RALB [2]: 3.8 g/dL
- TBIL [2]: 0.4 mg/dL
- TC [2]: 65.6 mg/dL
- TG [2]: 74.4 mg/dL
- TP [2]: 5.7 g/dL
- gamma-GTP [2]: 1.4 IU/L
- ALP [3]: 636.8 IU/L
- ALT [3]: 30.6 IU/L
- AST [3]: 57.4 IU/L
- BUN [3]: 19.6 mg/dL
- CRE [3]: 0.6 mg/dL
- Ca [3]: 10.8 mg/dL
- Cl [3]: 105.4 meq/L
- DBIL [3]: 0.016 mg/dL
- GLC [3]: 186.8 mg/dL
- IP [3]: 6.5 mg/dL
- K [3]: 3.9 meq/L
- LDH [3]: 101.8 IU/L
- Na [3]: 141 meq/L
- PL [3]: 160.6 mg/dL
- RALB [3]: 3.8 g/dL
- TBIL [3]: 0.4 mg/dL
- TC [3]: 66.4 mg/dL
- TG [3]: 130.4 mg/dL
- TP [3]: 5.9 g/dL
- gamma-GTP [3]: 0.6 IU/L
- ALP [4]: 509.8 IU/L
- ALT [4]: 31.8 IU/L
- AST [4]: 53 IU/L
- BUN [4]: 18.8 mg/dL
- CRE [4]: 0.5 mg/dL
- Ca [4]: 10.7 mg/dL
- Cl [4]: 106.4 meq/L
- DBIL [4]: 0.05 mg/dL
- GLC [4]: 179.8 mg/dL
- IP [4]: 6.2 mg/dL
- K [4]: 4.2 meq/L
- LDH [4]: 122.4 IU/L
- Na [4]: 140 meq/L
- PL [4]: 169.6 mg/dL
- RALB [4]: 4 g/dL
- TBIL [4]: 0.2 mg/dL
- TC [4]: 72.4 mg/dL
- TG [4]: 139.8 mg/dL
- TP [4]: 6.2 g/dL
- gamma-GTP [4]: 1.2 IU/L
- TERMINAL_BW [5]: 193.8 g
- APTT [5]: 18.5 s
- Bas [5]: 0%
- Eos [5]: 1%
- Fbg [5]: 226.8 mg/dL
- Hb [5]: 14.7 g/dL
- Lym [5]: 85%
- MCH [5]: 21.1 pg
- MCHC [5]: 33.3%
- MCV [5]: 63.2 fL
- Mono [5]: 6.6%
- Plat [5]: 124.6 x10_4/uL
- RBC [5]: 696 x10_4/ul
- Ret [5]: 2.8%
- WBC [5]: 69 x10_2/uL
- KIDNEY_L [5]: 1 g
- KIDNEY_R [5]: 1 g
- KIDNEY_TOTAL [5]: 2 g
- ALP [5]: 630.6 IU/L
- ALT [5]: 29.6 IU/L
- AST [5]: 52.4 IU/L
- BUN [5]: 17.2 mg/dL
- CRE [5]: 0.5 mg/dL
- Ca [5]: 10.4 mg/dL
- Cl [5]: 103.8 meq/L
- DBIL [5]: 0.018 mg/dL
- GLC [5]: 174 mg/dL
- IP [5]: 8.2 mg/dL
- K [5]: 4.4 meq/L
- LDH [5]: 99.6 IU/L
- Na [5]: 139.2 meq/L
- PL [5]: 121.2 mg/dL
- RALB [5]: 3.7 g/dL
- TBIL [5]: 0.4 mg/dL
- TC [5]: 62.8 mg/dL
- TG [5]: 24 mg/dL
- TP [5]: 5.5 g/dL
- gamma-GTP [5]: 1 IU/L
- TERMINAL_BW [6]: 231.2 g
- TERMINAL_BW [7]: 269 g
- TERMINAL_BW [8]: 326.2 g
- APTT [6]: 18.1 s
- Bas [6]: 0%
- Eos [6]: 0.8%
- Fbg [6]: 233 mg/dL
- Hb [6]: 14.4 g/dL
- Lym [6]: 81.4%
- MCH [6]: 21.2 pg
- MCHC [6]: 33.5%
- MCV [6]: 63.3 fL
- Mono [6]: 6%
- Plat [6]: 108.9 x10_4/uL
- RBC [6]: 680.2 x10_4/ul
- Ret [6]: 5.8%
- WBC [6]: 128.7 x10_2/uL
- APTT [7]: 19.3 s
- Bas [7]: 0%
- Eos [7]: 0.6%
- Fbg [7]: 233.6 mg/dL
- Hb [7]: 15 g/dL
- Lym [7]: 82.2%
- MCH [7]: 20.1 pg
- MCHC [7]: 33.6%
- MCV [7]: 59.7 fL
- Mono [7]: 6.4%
- Plat [7]: 119.9 x10_4/uL
- RBC [7]: 750.6 x10_4/ul
- Ret [7]: 5.6%
- WBC [7]: 115.6 x10_2/uL
- APTT [8]: 18.4 s
- Bas [8]: 0%
- Eos [8]: 1%
- Fbg [8]: 288.6 mg/dL
- Hb [8]: 15.3 g/dL
- Ht [8]: 45%
- Lym [8]: 80.4%
- MCH [8]: 19.3 pg
- MCHC [8]: 33.9%
- MCV [8]: 56.9 fL
- Mono [8]: 6.4%
- Plat [8]: 134.2 x10_4/uL
- RBC [8]: 791.2 x10_4/ul
- Ret [8]: 5.2%
- WBC [8]: 109.3 x10_2/uL
- KIDNEY_L [6]: 1.1 g
- KIDNEY_R [6]: 1.1 g
- KIDNEY_TOTAL [6]: 2.2 g
- KIDNEY_L [7]: 1.2 g
- KIDNEY_R [7]: 1.2 g
- KIDNEY_TOTAL [7]: 2.4 g
- KIDNEY_L [8]: 1.7 g
- KIDNEY_R [8]: 1.7 g
- KIDNEY_TOTAL [8]: 3.3 g
- ALP [6]: 838.2 IU/L
- ALT [6]: 31.4 IU/L
- AST [6]: 51.6 IU/L
- BUN [6]: 16 mg/dL
- CRE [6]: 0.6 mg/dL
- Ca [6]: 10.8 mg/dL
- Cl [6]: 107.2 meq/L
- DBIL [6]: 0.01 mg/dL
- GLC [6]: 183.8 mg/dL
- IP [6]: 7.4 mg/dL
- K [6]: 4.7 meq/L
- LDH [6]: 102.6 IU/L
- Na [6]: 140.2 meq/L
- PL [6]: 160.2 mg/dL
- RALB [6]: 3.6 g/dL
- TBIL [6]: 0.4 mg/dL
- TC [6]: 75.2 mg/dL
- TG [6]: 98.4 mg/dL
- TP [6]: 5.6 g/dL
- gamma-GTP [6]: 1.4 IU/L
- ALP [7]: 701.4 IU/L
- ALT [7]: 26.4 IU/L
- AST [7]: 55.8 IU/L
- BUN [7]: 17.6 mg/dL
- CRE [7]: 0.5 mg/dL
- Ca [7]: 10.8 mg/dL
- Cl [7]: 104.4 meq/L
- DBIL [7]: 0.042 mg/dL
- GLC [7]: 172 mg/dL
- IP [7]: 7.9 mg/dL
- K [7]: 4.2 meq/L
- LDH [7]: 92 IU/L
- Na [7]: 141.4 meq/L
- PL [7]: 152.6 mg/dL
- RALB [7]: 3.9 g/dL
- TBIL [7]: 0.4 mg/dL
- TC [7]: 64.4 mg/dL
- TG [7]: 88 mg/dL
- TP [7]: 5.8 g/dL
- gamma-GTP [7]: 1.2 IU/L
- ALP [8]: 453.2 IU/L
- ALT [8]: 24.6 IU/L
- AST [8]: 35.8 IU/L
- BUN [8]: 24.8 mg/dL
- CRE [8]: 0.7 mg/dL
- Ca [8]: 10.9 mg/dL
- Cl [8]: 106.6 meq/L
- DBIL [8]: 0.04 mg/dL
- GLC [8]: 175.6 mg/dL
- IP [8]: 7.3 mg/dL
- K [8]: 4.3 meq/L
- LDH [8]: 96.2 IU/L
- Na [8]: 141.2 meq/L
- PL [8]: 174.6 mg/dL
- RALB [8]: 3.9 g/dL
- TBIL [8]: 0.3 mg/dL
- TC [8]: 70.6 mg/dL
- TG [8]: 152.2 mg/dL
- TP [8]: 6.1 g/dL
- gamma-GTP [8]: 2.4 IU/L
